Assay [1] relates to maize (Zea mays—variety Oldham). The experiment in a line: Root growth promotion: maize germination in a soil free test system. Format: in vivo. Particulars: for Fresh weight of harvested roots, Mean of 4 replicates / Fresh weight of harvested roots, single replicate: 13 days after sowing, Blank WP mean 317; for Fresh weight of harvested roots, single replicate: roots of 10 seeds per container. The procedure: 8 cm round filter papers were placed in 9.5 cm square clear plastic tissue culture containers (ICN Biomedicals, Inc). The paper in each of 4 containers were wetted with 2 ml of tap water containing 2500, 1250 or 625 ppm of cyprosulfamide provided as a 20% wettable powder formulation (WP). 4 further containers were wetted with tap water containing blank WP formulation (i.e. all components except cyprosulfamide). Into each Petri dish 10 seeds of maize (Zea mays—variety Oldham) were evenly spread and the lids put in place. The Petri dishes were placed in glasshouse set to 24° C.±2° C. day and 17° C.±2° C. night. High-pressure mercury lamps (400 W) were used to augment daylight during cloudy conditions. As required, small volumes of water were added to the Petri dishes as necessary to keep the filter paper moist. After 13 days the roots from all seeds per container were harvested by cutting as close to the base as possible. The fresh weight of roots was measured immediately.

In assay [2] the test system is maize varieties (Cecilia and Abraxas). The experiment in a line: Shoot growth regulation: glasshouse pot trial, plant height of 2 maize varieties. Format: in vivo. Particulars: for Mean plant height per pot, Mean of 8 replicates / Mean plant height per pot, single replicate: 25 days after sowing. The procedure:
Three cyprosulfamide treatment methods (1 to 3) were used in a trial designed to investigate effects on shoot development. Treatment method 1 was a seed treatment. For this, fifty seeds each of two maize varieties ([…] and Abraxas) were weighed and placed into each of 50 ml glass screw cap bottles. To one of these bottles sufficient wettable powder formulation of cyprosulfamide (20% formulation) was added to provide 1 g of cyprosulfamide per 1000 g of seed. To the second bottle the same amount of a blank formulation (same components but lacking cyprosulfamide) was added. To each bottle 10 ml of deionised water was added the caps fitted. The bottles were then placed on a shaker for 20 minutes so that the seeds were evenly coated with the formulation. For methods 2 and 3, 240 peat pots (7 cm diameter) were filled to within 3 cm of the top with steam sterilised sandy-loam soil (20% sand, 57% silt, 23% clay, pH 6.8 and 1.4% organic matter). In addition, 120 Petri dishes (10 cm diameter) were filled (1 cm depth) with the same soil. The 20% wettable powder formulation of cyprosulfamide was dispersed in de-ionised water to produce the required concentration (ppm). 120 pots (Treatment 2) and the all 120 Petri dishes (Treatment 3) were placed on “feed-belt” of a track-sprayer. The spray solution of cyprosulfamide was placed into the spray vessel and applied to the target pots/dishes at a spray volume of 300 l/ha via a flat fan nozzle. This provided a dose rate equivalent to 1000 g of cyprosulfamide per hectare soil surface. For treatment method 1, five treated maize seed were sown onto 8 replicate untreated pots and covered with untreated soil. For treatment method 2, five untreated seeds were sown onto 8 replicate treated pots and covered with untreated soil. For treatment method 3, five untreated seeds were sown onto 8 replicate untreated pots and covered using the treated soil from the Petri dishes. Control (Treatment 4) had also untreated seeds on untreated soil. The placement of cyprosulfamide as a result of these treatment methods is shown in FIG. 1 All the pots were watered and placed in a glasshouse set to 24° C.±2° C. day and 17° C.±2° C. night. The relative humidity was normally above 60%. High-pressure mercury lamps (400 W) were used to augment daylight during cloudy conditions. Pots were watered as required. 25 days after sowing the height of each plant was measured from soil surface to tip of tallest leaf which was held up against a ruler.

[3] abbreviates: variety Abraxas, treatment 1 = seed treatment, 1 g per 1000 g seed, untreated mean 36.0.
The mark [4] stands for this setting: variety Abraxas, treatment 2 = soil below seed, 1000 g per hectare, untreated mean 36.0.
Setting [5] is: variety Abraxas, treatment 3 = soil above seed, 1000 g per hectare, untreated mean 36.0.
Setting [6] is: variety Cecilia, treatment 1 = seed treatment, 1 g per 1000 g seed, untreated mean 55.3.
Where [7] appears, read: variety Cecilia, treatment 2 = soil below seed, 1000 g per hectare, untreated mean 55.3.
The mark [8] stands for this setting: variety Cecilia, treatment 3 = soil above seed, 1000 g per hectare, untreated mean 55.3.

Values joined by “and” are separate entries in the source; they are usually repeats but may differ in a detail not shown here. Equal values may be shown once.

On to `COc1ccccc1C(=O)NS(=O)(=O)c1ccc(C(=O)NC2CC2)cc1` [cyprosulfamide], for which the results for the “Fresh weight of harvested roots, Mean of 4 replicates” value in assay [1] (WP + 625 ppm a.i.), in assay [1] (WP + 1250 ppm a.i.) and in assay [1] (WP + 2500 ppm a.i.) were 620 mg, 838 mg and 778 mg, respectively. Moreover, the “Fresh weight of harvested roots, single replicate” value was 587 mg and 579 mg and 547 mg and 767 mg in assay [1] (WP + 625 ppm a.i.); 700 mg and 717 mg and 846 mg and 1087 mg in assay [1] (WP + 1250 ppm a.i.); 918 mg and 1211 mg and 634 mg and 350 mg in assay [1] (WP + 2500 ppm a.i.). In assay [1] (in the presence of cyprosulfamide (625-2500 ppm) versus blank WP), the “root development of germinating maize seed” value is listed as “significantly enhanced”. Besides, the “effect on plant height (statistical analysis)” value in assay [2] (all treatments (1 to 3) versus untreated, in Cecilia and Abraxas) was “significantly reduced plant height”. In addition, the “Mean plant height per pot, Mean of 8 replicates” value in assay [2] (setting [3]) was 26.3 cm; in assay [2] (setting [4]), 33.4 cm; in assay [2] (setting [5]) it was 30.4 cm; in assay [2] (setting [6]), 41.2 cm; in assay [2] (setting [7]), 44.4 cm; in assay [2] (setting [8]), 47.8 cm. Moreover, the “Mean plant height per pot, single replicate” value is 28.2 cm and 20.8 cm and 31.6 cm and 22.6 cm and 25.2 cm and 22.2 cm and 28.8 cm and 30.6 cm in assay [2] (setting [3]); 34.2 cm and 34.5 cm and 34.4 cm and 33.4 cm and 32.2 cm and 33.6 cm and 30.5 cm and 34.6 cm in assay [2] (setting [4]); 25.2 cm and 26.6 cm and 29.6 cm and 32.2 cm (2×) and 31.4 cm and 32.8 cm and 33.0 cm in assay [2] (setting [5]); 34.3 cm and 40.7 cm and 50.0 cm and 38.3 cm and 39.3 cm and 44.0 cm and 41.0 cm and 41.7 cm in assay [2] (setting [6]); 46.0 cm (2×) and 50.0 cm and 48.2 cm and 42.8 cm and 41.7 cm and 40.6 cm and 40.3 cm in assay [2] (setting [7]); 43.0 cm and 54.0 cm and 47.6 cm and 47.0 cm and 55.5 cm and 58.0 cm and 36.8 cm and 40.8 cm in assay [2] (setting [8]).
